# Results as given in PubChem BioAssay (NCI).
# Several values for one entry are separate records, joined by “and”; a condition that tells them apart may be missing. Equal entries are not always repeated.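 Exposure lasted 48 hours, with cells grown in 96-well plates and compounds tested at five concentrations. GI50 marks 50% less growth. The concentration for full growth arrest is given as TGI.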
# Assays:
# Assay in all cases: inhibition of tumour cell growth, NCI panel, 48 h
# CCRF-CEM leukemia = system: CCRF-CEM leukemia
# DU-145 prostate = system: DU-145 prostate
# K-562 leukemia = system: K-562 leukemia
# MCF7 breast = system: MCF7 breast
# MDA-MB-231 breast = system: MDA-MB-231 breast
# OVCAR-8 ovarian = system: OVCAR-8 ovarian
# SK-MEL-28 melanoma = system: SK-MEL-28 melanoma
# SK-MEL-5 melanoma = system: SK-MEL-5 melanoma
# SR leukemia = system: SR leukemia
# UACC-257 melanoma = system: UACC-257 melanoma
Structure (SMILES),GI50 (CCRF-CEM leukemia) [µM],TGI (CCRF-CEM leukemia),GI50 (DU-145 prostate) [µM],TGI (DU-145 prostate) [µM],GI50 (K-562 leukemia) [µM],TGI (K-562 leukemia),GI50 (MCF7 breast) [µM],TGI (MCF7 breast) [µM],GI50 (MDA-MB-231 breast) [µM],TGI (MDA-MB-231 breast) [µM],GI50 (OVCAR-8 ovarian) [µM],TGI (OVCAR-8 ovarian),GI50 (SK-MEL-28 melanoma) [µM],TGI (SK-MEL-28 melanoma) [µM],GI50 (SK-MEL-5 melanoma) [µM],TGI (SK-MEL-5 melanoma),GI50 (SR leukemia) [µM],TGI (SR leukemia) [µM],GI50 (UACC-257 melanoma) [µM],TGI (UACC-257 melanoma) [µM]
CCC(=C(c1ccc(OCCN(CC)CC)cc1)c1ccc(OCCN(CC)CC)cc1)c1ccc(Cl)cc1,0.641,1.74 µM,0.619,1.19,0.156,0.898 µM,0.347,0.861,0.573,1.09,0.685,1.51 µM,0.592,1.09,0.593,1.06 µM,0.249,0.981,0.62,1.25
c1csc(-c2[nH]nc3c2CCc2ccccc2-3)c1,21.7,73.3 µM,23.4,71.3,22,68.6 µM,0.23,11.8,0.966,19.5,18.7,56.8 µM,19.2,39.7,13,26 µM,21.9,66.3,19.8,49.1
C/C(=N\NC(=O)c1ccncc1)c1ccccc1O,0.742,> 100 µM,4.85,> 100,5.78,> 100 µM,3.72,> 100,5.65,> 100,3.05,> 100 µM,20.9,> 100,3.6,32.2 µM,1.8,> 100,4.14,> 100
CN(C)C(=O)c1cc2cnc(Nc3ccc(N4CCNCC4)cn3)nc2n1C1CCCC1,2.92,> 100 µM,23.5,> 100,17.6,> 100 µM,0.592,37.2,8.48,74.5,23.7,89.7 µM,16.1,48.3,11.6,24.5 µM,3.21,38.7,15.7,33.4
O=C(NCc1cccnc1)c1ccc([N+](=O)[O-])o1,14.5,> 32.5 µM,1.11,4.11,2.06,> 32.5 µM,0.973,5.21,16.1,> 32.5,2.37,14.5 µM,2.83,7.58,2.18,6.38 µM,1.24,> 32.5,1.13,5.03
Cc1c(N)nc(C2CC(=O)N2CC(N)C(N)=O)nc1C(=O)NC(C(=O)NC(C)C(O)C(C)C(=O)NC(C(=O)NCCc1nc(-c2nc(C(=O)NCCNCC(C)O)cs2)cs1)C(C)O)C(OC1OC(CO)C(O)C(O)C1OC1OC(CO)C(O)C(OC(N)=O)C1O)c1cnc[nH]1 (configuration not stated),12.6,50 µM and > 33 µM,,37.6,35.9,50 µM and > 100 µM,,50,,> 50,6.97,50 µM and > 100 µM,> 50,> 100,0.644,11.6 µM and 17.9 µM,0.005,50,6.2,49.4
Cc1cccc(Cc2cnc(NC(=O)CCCOc3ccc(Cl)cc3)s2)c1,3.68,> 100 µM,3.91,> 100,3.84,> 100 µM,3.16,> 100,21.2,> 100,27.3,> 100 µM,37.2,> 100,3.69,> 100 µM,2.51,> 100,7.41,> 100
